Experiment [1] concerns Escherichia coli. Kind of experiment: microbe, parasite or virus in culture.
Experiment [2] can be described thus: restored growth of temperature-sensitive Burl-1 yeast – whole organism, S. cerevisiae, Burl-1 ts mutant, luminescence, counter-screen for SUMOylation pathway inhibitor project, dose response (AID 463199). Type of experiment: functional. (In general: The purpose of a counterscreen is to sort out artefacts and off-target activity.)
The test system of experiment [3] is Escherichia coli. The experiment is described as follows: microbe, parasite or virus in culture. This is another data set of the same source.
Another experiment deals with Phosphomannomutase 2 (Homo sapiens, UniProt O15305). The experiment is described as follows: Counter screen SAR assay for PMM2 inhibitors via a fluorescence intensity assay. [Related pubchem assays (depositor defined):AID1545, AID1574].
Experiment [4] addresses T1, Mannose-6-phosphate isomerase (Homo sapiens, UniProt P34949).
T1 sequence (P34949 whole entry): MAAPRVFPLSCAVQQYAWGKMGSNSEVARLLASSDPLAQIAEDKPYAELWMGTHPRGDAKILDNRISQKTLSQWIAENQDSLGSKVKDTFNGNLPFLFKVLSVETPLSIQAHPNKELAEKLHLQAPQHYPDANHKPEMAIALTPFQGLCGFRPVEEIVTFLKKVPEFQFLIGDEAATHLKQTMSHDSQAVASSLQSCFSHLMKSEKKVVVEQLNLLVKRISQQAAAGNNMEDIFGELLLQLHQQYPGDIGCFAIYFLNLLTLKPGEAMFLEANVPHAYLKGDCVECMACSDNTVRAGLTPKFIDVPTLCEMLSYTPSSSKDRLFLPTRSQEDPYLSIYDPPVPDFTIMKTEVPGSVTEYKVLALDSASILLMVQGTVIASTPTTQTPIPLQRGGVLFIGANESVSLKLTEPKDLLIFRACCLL
Kind of experiment: phosphomannose isomerase inhibition – biochemical, fluorescence intensity, confirmation (AID 1535).

In experiment [5] the target is Phosphoethanolamine/phosphocholine phosphatase (Homo sapiens, UniProt Q8TCT1). The experiment is described as follows: SAR assay for compounds that inhibit PHOSPHO1. [Related pubchem assays (depositor defined):AID1545, AID1565, AID1574].
The test system of experiment [6] is HEK293. The experiment is described as follows: NOD2 signaling inhibitors in MDP-stimulated cells, cell-based, uHTS, luminescence (AID 2001). Type of experiment: functional. To be noted: Homo sapiens.
For experiment [7], the system named is HEK293. The experiment is described as follows: SAR Analysis of small molecule inhibitors of T-cell specific antigen receptor-induced NF-kB activation in a HEK-293T cell line using a luminescence assay - Set 2. [Related pubchem assays (depositor defined):AID435003, AID435012, AID489026]. It is filed as functional, cell-based. To be noted: Homo sapiens.
Experiment [8] concerns the target Nucleotide-binding oligomerization domain-containing protein 2 (Homo sapiens, UniProt Q9HC29). Kind of experiment: inhibition of NOD2-driven NF-kB reporter – cell-based, luminescence, uHTS, HEK293 (AID 1566). It is filed as functional.
Experiment [9] deals with HEK293. The experiment is described as follows: cells. Type of experiment: functional, cell-based. To be noted: Homo sapiens.
For another experiment, the system named is Jurkat. Kind of experiment: SAR Analysis of small molecule inhibitors of T-cell specific antigen receptor-induced NF-kB activation in a Jurkat cell line using a luminescence assay - Set 2. [Related pubchem assays (depositor defined):AID435003, AID435012, AID465]. It is filed as functional, cell-based. To be noted: Homo sapiens.
Experiment [10] relates to HEK293. Kind of experiment: HEK293T cell viability loss, resazurin readout – resazurin fluorescence, cytotoxicity control for NF-kB activator project, SAR follow-up (AID 493251). Type of experiment: functional, cell-based. To be noted: Homo sapiens.
The test system of experiment [11] is HEK293. Kind of experiment: inhibition of NOD1-driven NF-kB reporter – cell-based, luminescence, uHTS, primary screen (AID 1578). It is filed as functional. To be noted: Homo sapiens.
Experiment [12] relates to HEK293. The experiment is described as follows: cells. Type of experiment: functional, cell-based. To be noted: Homo sapiens. This is another data set of the same source.
Experiment [13] has as its system HEK293. Kind of experiment: cells. It is filed as functional, cell-based. To be noted: Homo sapiens. This is another data set of the same source.
Experiment [14] addresses T2, Microphthalmia-associated transcription factor (Homo sapiens, UniProt O75030).
T2 sequence (O75030 whole entry): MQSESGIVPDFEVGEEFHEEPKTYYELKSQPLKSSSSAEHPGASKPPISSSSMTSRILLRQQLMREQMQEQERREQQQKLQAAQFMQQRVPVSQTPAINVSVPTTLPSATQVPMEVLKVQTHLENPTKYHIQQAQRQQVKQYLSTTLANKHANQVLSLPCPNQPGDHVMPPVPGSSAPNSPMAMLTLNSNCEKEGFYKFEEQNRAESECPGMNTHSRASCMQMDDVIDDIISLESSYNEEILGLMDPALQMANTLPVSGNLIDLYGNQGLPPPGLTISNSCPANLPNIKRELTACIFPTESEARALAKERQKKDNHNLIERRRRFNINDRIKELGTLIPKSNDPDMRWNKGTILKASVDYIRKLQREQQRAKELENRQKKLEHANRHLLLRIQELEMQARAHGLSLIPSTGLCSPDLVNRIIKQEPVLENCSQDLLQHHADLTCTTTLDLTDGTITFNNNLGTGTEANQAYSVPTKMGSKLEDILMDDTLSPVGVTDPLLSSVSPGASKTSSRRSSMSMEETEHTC
The experiment is described as follows: reducers of TRPM1 reporter luminescence, concentration series – cell-based, SK-MEL-5, cherry-picked, set 3, MITF inhibitor project, dose response (AID 493073).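 Further: SK-MEL-5 melanoma cells with luciferase driven by the MITF target TRPM1 promoter.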 Type of experiment: functional.

The next experiment has as its system INS1. Kind of experiment: beta-cell survival under cytokine stress – INS-1E, ATP luminescence, dry powder, dose response (AID 488844). Type of experiment: functional, cell-based. To be noted: Rattus norvegicus.

AC50, IC50 and EC50 data for six compounds are collected here from ChEMBL document CHEMBL1201862, “PubChem BioAssay data set” (2004).

Activity calls are given as the source filed them.

Chain of Phosphoethanolamine/phosphocholine phosphatase (Q8TCT1 whole entry): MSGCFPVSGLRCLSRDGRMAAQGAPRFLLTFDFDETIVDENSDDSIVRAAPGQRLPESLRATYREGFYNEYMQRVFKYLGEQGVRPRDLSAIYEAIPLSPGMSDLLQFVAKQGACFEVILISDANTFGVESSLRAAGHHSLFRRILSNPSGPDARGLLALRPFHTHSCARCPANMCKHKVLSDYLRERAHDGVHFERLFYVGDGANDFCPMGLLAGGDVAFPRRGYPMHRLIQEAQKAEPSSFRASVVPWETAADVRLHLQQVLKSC
Chain of Phosphomannomutase 2 (O15305 whole entry): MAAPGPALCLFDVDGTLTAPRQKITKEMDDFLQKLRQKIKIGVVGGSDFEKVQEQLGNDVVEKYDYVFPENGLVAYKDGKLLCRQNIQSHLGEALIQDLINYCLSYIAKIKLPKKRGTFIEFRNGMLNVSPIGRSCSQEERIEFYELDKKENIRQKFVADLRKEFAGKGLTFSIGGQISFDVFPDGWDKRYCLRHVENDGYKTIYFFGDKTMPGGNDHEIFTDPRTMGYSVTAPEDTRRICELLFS
Chain of Nucleotide-binding oligomerization domain-containing protein 2 (Q9HC29 whole entry, the tested form may be a part): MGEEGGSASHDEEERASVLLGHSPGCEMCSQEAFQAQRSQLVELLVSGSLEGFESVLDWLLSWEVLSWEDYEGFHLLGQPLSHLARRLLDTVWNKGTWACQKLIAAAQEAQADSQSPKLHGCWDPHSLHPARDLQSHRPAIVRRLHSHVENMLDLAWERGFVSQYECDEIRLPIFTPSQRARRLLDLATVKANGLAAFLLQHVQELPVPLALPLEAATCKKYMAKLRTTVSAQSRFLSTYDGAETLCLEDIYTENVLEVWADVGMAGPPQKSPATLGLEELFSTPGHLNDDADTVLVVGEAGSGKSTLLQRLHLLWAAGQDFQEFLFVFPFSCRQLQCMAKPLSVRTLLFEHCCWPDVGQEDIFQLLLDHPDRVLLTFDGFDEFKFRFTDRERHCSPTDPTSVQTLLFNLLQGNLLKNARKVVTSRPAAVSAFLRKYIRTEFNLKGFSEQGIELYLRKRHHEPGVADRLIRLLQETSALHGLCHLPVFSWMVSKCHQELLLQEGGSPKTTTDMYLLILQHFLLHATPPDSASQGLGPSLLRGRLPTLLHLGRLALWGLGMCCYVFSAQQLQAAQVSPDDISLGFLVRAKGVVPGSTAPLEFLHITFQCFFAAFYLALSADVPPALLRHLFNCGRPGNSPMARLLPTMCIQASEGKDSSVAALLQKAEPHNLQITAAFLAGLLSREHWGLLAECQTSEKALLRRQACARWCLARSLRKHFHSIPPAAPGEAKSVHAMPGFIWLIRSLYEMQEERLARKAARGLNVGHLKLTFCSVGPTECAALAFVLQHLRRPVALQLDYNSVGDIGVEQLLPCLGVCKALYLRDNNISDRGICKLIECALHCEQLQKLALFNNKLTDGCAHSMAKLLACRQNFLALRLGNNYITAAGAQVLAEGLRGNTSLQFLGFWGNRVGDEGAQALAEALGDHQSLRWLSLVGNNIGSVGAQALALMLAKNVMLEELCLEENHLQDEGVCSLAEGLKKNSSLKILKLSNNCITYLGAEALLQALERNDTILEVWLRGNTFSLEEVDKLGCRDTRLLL

As a reminder, the AC50 is the concentration at which the activity in the assay is half-maximal. Regarding `COc1ccc(S(=O)(=O)N2CCN(CC(=O)Nc3c(C)n[nH]c3C)CC2)cc1OC`, the AC50 with Escherichia coli [1] was 62.1 µM (active).
With `C=CCN(C(=O)CNC(=O)c1ccco1)C(C(=O)NC1CCCCC1)c1ccccc1` (configuration not stated), the AC50 in [2] was 101 µM (active).
For the compound `Cc1cc(Cl)c(S(=O)(=O)NC(C(=O)O)C(C)C)cc1OCC(=O)NC1CCCCC1` (configuration not stated), in the experiment on Escherichia coli [3], the AC50 was 25.9 µM (active).
For orientation: IC50 means the concentration at which inhibition is half-maximal. Turning to `O=C1c2ccccc2C(=O)c2c1ccc1c(=O)n(-c3ccccc3)sc21`, the IC50 is > 100 µM (inactive) on Phosphomannomutase 2, > 50 µM (inactive) in [4] and 1.96 µM (inactive) in experiment [5].
The EC50 is the concentration at which the effect is half-maximal. For `O=C(Nc1ccc2oc(-c3cccnc3)nc2c1)c1ccc([N+](=O)[O-])o1`, the IC50 with HEK293 [6] is 7.39 µM (active); in the experiment with HEK293 [7] it was 51.5 µM (inactive); in the experiment with HEK293 [9], > 20 µM (inactive); with Jurkat, 38.7 µM (inactive); in the experiment on HEK293 [10], > 80 µM (inactive); in the experiment on HEK293 [12] it was 4.02 µM (active). Besides, the IC50 in the experiment on HEK293 [13] was > 20 µM (inactive). Moreover, the EC50 in experiment [8] was > 20 µM (inactive); with HEK293 [11], 7.26 µM (active). The AC50 in experiment [14] is 14.2 µM (active).
For the compound `C[C@@H]1CN([C@H](C)CO)C(=O)c2cccc(NC(=O)Nc3ccccc3)c2O[C@H]1CN(C)S(=O)(=O)c1ccc(F)cc1`, the AC50 with INS1 was 38.3 µM (active).
